Laboratory results taken from US20220089541A1, “Compounds for the Treatment of Kinase-Dependent Disorders” (Exelixis, Inc., priority 2019, published 2022).

Assays:
Mer = biological target: T1, Mer (Homo sapiens, UniProt Q12866); assay: Mer autophosphorylation ELISA in transient transfected 293A cells; format: cell-based; details: 293A cells transfected with MERTK DNA, phospho-Mer ELISA, 1 h compound incubation
T1 construct: host or cells: 293A cells (Thermo Fisher #R70507)
T1 sequence (Q12866 21-999): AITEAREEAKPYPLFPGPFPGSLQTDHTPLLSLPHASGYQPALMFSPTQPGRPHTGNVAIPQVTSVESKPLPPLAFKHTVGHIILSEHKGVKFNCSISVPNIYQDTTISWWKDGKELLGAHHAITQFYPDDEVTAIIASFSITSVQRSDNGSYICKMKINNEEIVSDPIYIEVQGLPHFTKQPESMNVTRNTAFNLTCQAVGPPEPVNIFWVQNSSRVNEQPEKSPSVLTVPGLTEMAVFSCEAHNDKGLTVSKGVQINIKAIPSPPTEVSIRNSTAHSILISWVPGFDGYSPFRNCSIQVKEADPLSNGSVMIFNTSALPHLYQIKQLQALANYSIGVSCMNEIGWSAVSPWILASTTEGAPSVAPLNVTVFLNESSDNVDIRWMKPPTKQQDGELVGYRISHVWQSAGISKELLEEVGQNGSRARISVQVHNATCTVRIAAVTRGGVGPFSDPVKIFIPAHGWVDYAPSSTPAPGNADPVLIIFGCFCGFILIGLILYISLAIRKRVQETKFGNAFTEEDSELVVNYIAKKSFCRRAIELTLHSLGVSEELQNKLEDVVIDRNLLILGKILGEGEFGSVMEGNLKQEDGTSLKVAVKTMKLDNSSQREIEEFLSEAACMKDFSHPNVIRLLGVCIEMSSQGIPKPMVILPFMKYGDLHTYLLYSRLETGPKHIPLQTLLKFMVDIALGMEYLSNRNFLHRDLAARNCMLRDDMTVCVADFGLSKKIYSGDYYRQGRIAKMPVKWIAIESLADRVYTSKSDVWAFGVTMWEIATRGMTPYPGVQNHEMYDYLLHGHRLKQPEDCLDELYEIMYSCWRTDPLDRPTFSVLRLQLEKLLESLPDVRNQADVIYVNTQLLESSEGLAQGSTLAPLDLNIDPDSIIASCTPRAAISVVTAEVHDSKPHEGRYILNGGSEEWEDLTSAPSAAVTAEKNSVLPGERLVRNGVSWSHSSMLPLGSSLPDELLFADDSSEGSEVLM
Description: Example D: Mer Autophosphorylation ELISA in Transient Transfected 293A Cells
293A cells (Thermo Fisher #R70507) were seeded at 1.5×10^6 cells/well onto 100 mm dish (Greiner #664169), in DMEM (Thermo Fisher #11995-040) containing 10% FBS (Thermo Fisher #26140-079), 1% MEM NEAA (Thermo Fisher #11140-050), 1% GlutaMax (Thermo Fisher #35050-061), and 1% Penicillin Streptomycin (Thermo Fisher #15140-122). 293A cells were incubated at 37° C., 5% CO2 for 24 h and then transfected with 6 μg MERTK DNA (Genecopoeia #EX-Z8208-M02) using TransIT LT1 transfection reagent (Mirus-Bio #MIR2305). After 24 h incubation, the transfected 293A cells were seeded at 1×10^5 cells/well onto 96-well plates (Corning #3904) in DMEM growth medium overnight. Test compounds were serially diluted to produce an 8-point dose curve in fresh serum-free medium to a final concentration of 0.3% DMSO (vehicle) and added to the cells and incubated for 1 h. Cells were then immediately lysed with 150 μL of cold IX lysis buffer [20 mM Tris, 137 mM sodium chloride, 2 mM EDTA, 10% glycerol, l % NP-40 alternative, 1 mM activated sodium orthovanadate, 1 mM PefaBloc SC (Sigma-Aldrich #11429868001), protease/phosphatase inhibitor tablet (Thermo Fisher #A32959)]. Lysates were clarified by centrifugation and 50 μL/well added into the human phospho-Mer DuoSet IC ELISA (R&D Systems #DYC2579-2). Assay was performed according to manufacturer's instructions and sample phospho-Mer concentrations were extrapolated using human phospho-Mer control (R&D Systems #841793) as a standard. Positive control wells (100% activity) contained DMSO-treated cell lysates. Negative control wells (0% activity) contained reference inhibitor-treated cell lysates. IC50 values were calculated by nonlinear regression analysis using a 4-parameter logistic curve fit in ActivityBase XE (IDBS).

[1] = Microsomal assay, mouse liver microsome stability; details: liver microsomes, pH 7.4
Description: (§1) Liver microsomes tissue fractions were used for in vitro assessment of metabolic stability of compounds by cytochrome P450 (CYP450) (for example, CYP3A4, CYP2C9) mediated phase I oxidation, and metabolism through other pathways. Human, mouse, rat, and dog liver microsomes tissue fractions were obtained from Corning Gentest and BioreclamationIVT.
(§2) The assay was carried out in 96-well microtiter plates. Compounds were incubated (N=l) at 37° C. in the presence of liver microsomes. Reaction mixtures (25 μL) contained a final concentration of 1 μM test compound, 0.5 mg/mL liver microsomes (LM) protein, and 1 mM NADPH in 100 mM potassium phosphate, pH 7.4 buffer with 3.3 mM MgCl2. The extent of metabolism was calculated as the disappearance of the test compound, compared to the 0-min control reaction incubations. Verapamil was included as a positive control to verily assay performance.
(§3) At each of the four time points, 150 μL of quench solution (100% acetonitrile with 0.1% formic acid) with internal standard (bucetin for positive ESI mode) was transferred to each well. Plates were sealed and centrifuged at 10° C. for 15 minutes at 4000 rpm. The supernatant was transferred to fresh plates for LC/MS/MS analysis.
(§4) All samples were analyzed on LC/MS/MS using an AB Sciex API 4000 instrument, coupled to a Shimadzu LC-20AD LC Pump system. Analytical samples were separated using a Waters Atlantis T3 dC18 reverse phase HPLC column (20 mm×2.1 mm) at a flow rate of 0.5 mL/min. The mobile phase consisted of 0.1% formic acid in water (solvent A) and 0.1% formic acid in 100% acetonitrile (solvent B).

[2] = Microsomal assay, rat liver microsome stability; details: liver microsomes, pH 7.4
Description: as §1, §2, §3, §4

Met = biological target: T2, Met (Homo sapiens, UniProt P08581); assay: Met autophosphorylation ELISA in PC-3 cells; format: cell-based; details: PC-3 prostate cancer cells, HGF-stimulated, phospho-Met ELISA, 1 h compound incubation; read-out: c-Met IC50
T2 construct: host or cells: PC-3 prostate cancer cells
Description: Example B: Met Autophosphorylation ELISA in PC-3 Cells
PC-3 prostate cancer cells (ATCC #CRL-1435) were seeded at 4×10^4 cells/well onto 24-well plates (Greiner #662165), in DMEM (Thermo Fisher #11995-040) containing 10% FBS (Thermo Fisher #26140-079), 1% MEM NEAA (Thermo Fisher #11140-050), 1% GlutaMax (Thermo Fisher #35050-061), and 1% Penicillin Streptomycin (Thermo Fisher #15140-122). PC-3 cells were incubated at 37° C., 5% CO2 for 24 h and then starved for 3 h in serum-free medium. Test compounds were serially diluted to produce an 8-point dose curve in fresh serum-free medium to a final concentration of 0.3% DMSO (vehicle) and added to the cells and incubated for 1 h. Cells were then stimulated with 100 ng/mL recombinant human HGF (R&D Systems #294-HG-250) for 10 min, washed with cold PBS, and immediately lysed with 130 μL of cold IX lysis buffer [20 mM Tris, 137 mM sodium chloride, 2 mM EDTA, 10% glycerol, 1% NP-40 alternative, 1 mM activated sodium orthovanadate, 1 mM PefaBloc SC (Sigma-Aldrich #11429868001), protease/phosphatase inhibitor tablet (Thermo Fisher #A32959)]. Lysates were clarified by centrifugation and 100 μL/well added into the PathScan phospho-Met (panTyr) Sandwich ELISA (Cell Signaling Technology #7333). Assay was performed according to manufacturer's instructions. Positive control wells (100% activity) contained HGF-stimulated, DMSO-treated cell lysates. Negative control wells (0% activity) contained HGF-stimulated, reference inhibitor-treated cell lysates. IC50 values were calculated by nonlinear regression analysis using a 4-parameter logistic curve fit in ActivityBase XE (IDBS).

[3] = Microsomal assay, human liver microsome stability; details: liver microsomes, pH 7.4
Description: as §1, §2, §3, §4

T2 sequence (P08581 25-1390): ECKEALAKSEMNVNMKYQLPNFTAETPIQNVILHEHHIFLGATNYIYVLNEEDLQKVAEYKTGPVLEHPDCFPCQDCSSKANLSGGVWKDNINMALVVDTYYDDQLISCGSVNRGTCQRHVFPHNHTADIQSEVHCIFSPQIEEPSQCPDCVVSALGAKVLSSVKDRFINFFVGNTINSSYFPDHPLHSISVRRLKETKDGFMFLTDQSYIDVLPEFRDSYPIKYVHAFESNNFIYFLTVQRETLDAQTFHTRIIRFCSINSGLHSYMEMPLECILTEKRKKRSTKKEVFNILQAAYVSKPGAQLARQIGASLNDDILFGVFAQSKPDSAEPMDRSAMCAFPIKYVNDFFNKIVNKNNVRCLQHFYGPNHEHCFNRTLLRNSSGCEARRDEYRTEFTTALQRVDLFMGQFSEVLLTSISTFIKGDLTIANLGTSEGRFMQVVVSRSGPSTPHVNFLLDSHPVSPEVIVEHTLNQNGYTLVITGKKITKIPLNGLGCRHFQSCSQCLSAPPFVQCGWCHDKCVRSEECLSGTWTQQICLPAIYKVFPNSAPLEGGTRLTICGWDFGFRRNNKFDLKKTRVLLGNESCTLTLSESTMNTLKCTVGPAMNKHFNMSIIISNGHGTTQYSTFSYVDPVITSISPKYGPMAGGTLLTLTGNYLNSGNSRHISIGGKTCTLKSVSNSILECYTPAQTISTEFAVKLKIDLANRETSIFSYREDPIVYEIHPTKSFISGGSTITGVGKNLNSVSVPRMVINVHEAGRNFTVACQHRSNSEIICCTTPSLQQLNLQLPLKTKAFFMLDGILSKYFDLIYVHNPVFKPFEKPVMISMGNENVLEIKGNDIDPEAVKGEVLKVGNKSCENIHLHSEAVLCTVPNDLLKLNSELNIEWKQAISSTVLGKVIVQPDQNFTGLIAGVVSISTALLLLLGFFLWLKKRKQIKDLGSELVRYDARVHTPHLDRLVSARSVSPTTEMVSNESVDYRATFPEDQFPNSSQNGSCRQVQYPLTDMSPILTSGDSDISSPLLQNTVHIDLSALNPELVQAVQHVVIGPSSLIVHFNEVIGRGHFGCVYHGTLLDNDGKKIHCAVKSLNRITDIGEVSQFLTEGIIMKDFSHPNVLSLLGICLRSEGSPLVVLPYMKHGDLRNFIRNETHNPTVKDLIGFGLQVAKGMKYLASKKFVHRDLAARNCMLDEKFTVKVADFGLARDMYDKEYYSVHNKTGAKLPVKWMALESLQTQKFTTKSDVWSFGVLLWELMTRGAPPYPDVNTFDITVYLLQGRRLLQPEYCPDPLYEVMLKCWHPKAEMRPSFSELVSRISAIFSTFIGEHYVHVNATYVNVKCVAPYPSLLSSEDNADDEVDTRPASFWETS

IC50 (Mer) | half-life at 1 μM [1] | half-life at 1 μM [2] | IC50 (Met) | half-life at 1 μM [3] | Structure (SMILES)
> 0.3 µM | 4.1 min | 1.3 min | > 0.3 µM | 1.3 min | COc1cc2nccc(Oc3ccc(NC(=O)C4(C(=O)N(C)c5ccc(F)cc5)CC4)cc3F)c2cc1OC [Compound 10, N-(4-((6,7-Dimethoxyquinolin-4-yl)oxy)-3-fluorophenyl)-N-(4-fluorophenyl)-N-methylcyclopropane-1,1-dicarboxamide]
> 0.3 µM | 1.9 min | 1.2 min | > 0.3 µM | 1.3 min | COc1cc2nccc(Oc3ncc(NC(=O)C4(C(=O)N(C)c5ccc(F)cc5)CC4)cc3F)c2cc1C(N)=O [Compound 35, 1-N-[6-(6-Carbamoyl-7-methoxyquinolin-4-yl)oxy-5-fluoropyridin-3-yl]-1-N′-(4-fluorophenyl)-1-N′-methylcyclopropane-1,1-dicarboxamide]
> 0.3 µM | 3.1 min | 1.4 min | > 0.3 µM | 1.4 min | COc1cc2nccc(Oc3ccc(NC(=O)C4(C(=O)N(C)c5ccc(F)cc5)CC4)cc3)c2cc1OC [Compound 9, 1-N-[4-(6,7-Dimethoxyquinolin-4-yl)oxyphenyl]-1-N′-(4-fluorophenyl)-1-N′-methylcyclopropane-1,1-dicarboxamide]
> 0.3 µM | 9.6 min | 14.3 min | > 0.3 µM | 29.7 min | COc1cc2nccc(Oc3ccc(N(C)C(=O)C4(C(=O)Nc5ccc(F)cc5)CC4)cc3F)c2cc1OC [Compound 51, 1-N′-[4-(6,7-Dimethoxyquinolin-4-yl)oxy-3-fluorophenyl]-1-N-(4-fluorophenyl)-1-N′-methylcyclopropane-1,1-dicarboxamide]
> 0.3 µM | 2.6 min | 1.3 min | > 0.3 µM | 1.3 min | CNC(=O)c1cc2c(Oc3ncc(NC(=O)C4(C(=O)N(C)c5ccc(F)cc5)CC4)cc3F)ccnc2cc1OC [Compound 34, 1-N-[5-Fluoro-6-[7-methoxy-6-(methylcarbamoyl)quinolin-4-yl]oxypyridin-3-yl]-1-N′-(4-fluorophenyl)-1-N′-methylcyclopropane-1,1-dicarboxamide]
